Results: US20230346827A1 (priority 2020, published 2023)

Tested on: rats subjected to sTBI
Test: sTBI rats, LMW-DS 1, 5, 15 mg/kg s.c. 30 min post-TBI: HPLC of brain energy metabolites, antioxidants, oxidative/nitrosative stress biomarkers (Example 4)
Type: in vivo, rat
Settings: for ATP/ADP / NAD+/NADH: adimensional ratio
Description: Male Wistar rats (n=160) of 300-350 g body weight were used in this study. They were fed with standard laboratory diet and water ad libitum in a controlled environment.
As the accepted anesthetic mixture, animals received 35 mg/kg b.w. ketamine and 0.25 mg/kg body weight midazolam by intramuscular injection. Diffuse sTBI was induced according to the “weight drop” impact acceleration model set up by Marmarou et al. J. Neurosurg. 1994, 80: 291-300. This model causes diffuse axonal injury and it is able to reproduce the physical and mechanical characteristics of the diffuse TBI in humans.
Severe TBI was induced by dropping a 450 g weight from 2 meters height onto the rat head protected by a helmet (metal disk previously fixed on the skull using dental cement) in order to uniformly distribute the mechanical force to the brain. Rats were placed prone on a bed of specific polyurethane foam inserted in a special container; this foam dissipates the major part of the potential energy (deriving from the mechanical forces) and prevents any rebound of the animal after the impact that could produce spinal damages.
After 2 or 7 days from TBI induction, rats were anesthetized again and then immediately sacrificed. These time points are coincident with the worst biochemical derangement (2 days) or, in the case of a mildly injured brain, with a full metabolic recovery (7 days).
The drug treatment consisted in a subcutaneous injection of 0.5 ml of LMW-DS (ILB®, Tikomed, Viken, Sweden, WO 2016/076780) and administered at 3 different concentrations (1, 5 and 15 mg/kg body weight), according to the schematic protocol described below. Sham-operated animals underwent the same procedure of anesthesia but TBI and were used as the control group.
(§1) Rats subjected to sTBI and receiving a single administration of LMW-DS after 30 minutes post-TBI, with sacrifice at 2 days post-TBI. Animals were divided in the following subgroups: • 1. 12 animals subjected to sTBI and treated with 1 mg/kg b.w. LMW-DS • 2. 12 animals subjected to sTBI and treated with 5 mg/kg b.w. LMW-DS • 3. 12 animals subjected to sTBI and treated with 15 mg/kg b.w. LMW-DS
as §1, with “at 7” for “at 2”
Rats (n = 12) subjected to sTBI and receiving repeated administrations of the maximal dose of LMW-DS (15 mg/kg b.w.) after 30 minutes, 3 days and 5 days post-TBI, with sacrifice at 7 days post-TBI. Four additional rats were used for the histo-morphological studies. Total rats in this group: n=16
To minimize metabolite loss, an in vivo craniectomy was performed in all animals during anesthesia. The rat skull was carefully removed, the brain was exposed, sharply cut along the sagittal fissure and the two hemispheres were separated. The hemispheres dedicated to biochemical analyses were freeze-clamped by aluminum tongues pre-cooled in liquid nitrogen and then immersed in liquid nitrogen. The freeze-clamping procedure was introduced to accelerate freezing of the tissue, thus minimizing potential metabolite loss.
Tissue homogenization for metabolite analyses was effected as described below. After the wet weight (w.w.) determination, the frozen hemispheres were placed into 7 ml of ice-cold, nitrogen-saturated, precipitating solution (1:10 w/v) composed by CH3CN + 10 mM KH2PO4, pH 7.40, (3:1; v:v), and the homogenization was performed using an Ultra-Turrax homogenizer set at 24,000 rpm/min (Janke & Kunkel, Staufen, Germany). […]

[1] = 15 mg/kg repeated, 7 d post-sTBI

Q: sodium salt of dextran sulfate [LMW-DS] was tested. Which Malonyl-CoA (5 mg/kg, 7 d post-sTBI) did it give?
A: 6.02 ± 1.09 nmol/g w.w.

Q: What about the NADH (5 mg/kg, 7 d post-sTBI) of the same substance?
A: 8.83 ± 1.26 nmol/g w.w.

Q: What about the NADPH (5 mg/kg, 7 d post-sTBI) of the same substance?
A: 12.30 ± 2.86 nmol/g w.w.

Q: And the “NADP^+” value (5 mg/kg, 7 d post-sTBI)?
A: 24.45 ± 8.97 nmol/g w.w.

Q: And the “NAD^+” value (5 mg/kg, 7 d post-sTBI)?
A: 293.36 ± 41.55 nmol/g w.w.

Q: And the NO2 (5 mg/kg, 7 d post-sTBI)?
A: 59.61 ± 12.91 nmol/g w.w.

Q: And the NO3 (5 mg/kg, 7 d post-sTBI)?
A: 234.45 ± 40.05 nmol/g w.w.

Q: What about the UDP (5 mg/kg, 7 d post-sTBI) of the same substance?
A: 44.19 ± 6.22 nmol/g w.w.

Q: What about the UDP-Gal (5 mg/kg, 7 d post-sTBI) of the same substance?
A: 132.66 ± 9.12 nmol/g w.w.

Q: And the UDP-GalNac (5 mg/kg, 7 d post-sTBI)?
A: 17.37 ± 4.98 nmol/g w.w.

Q: What about the UDP-Glc (5 mg/kg, 7 d post-sTBI) of the same substance?
A: 58.10 ± 11.81 nmol/g w.w.

Q: And the UDP-GlcNac (5 mg/kg, 7 d post-sTBI)?
A: 85.14 ± 29.45 nmol/g w.w.

Q: And the UMP (5 mg/kg, 7 d post-sTBI)?
A: 167.18 ± 32.39 nmol/g w.w.

Q: And the URACIL (5 mg/kg, 7 d post-sTBI)?
A: 18.34 ± 3.77 nmol/g w.w.

Q: And the “URIC ACID” value (5 mg/kg, 7 d post-sTBI)?
A: 17.26 ± 4.11 nmol/g w.w.

Q: And the URIDINE (5 mg/kg, 7 d post-sTBI)?
A: 134.60 ± 31.89 nmol/g w.w.

Q: What about the UTP (5 mg/kg, 7 d post-sTBI) of the same substance?
A: 175.02 ± 30.65 nmol/g w.w.

Q: What about the XANTHINE (5 mg/kg, 7 d post-sTBI) of the same substance?
A: 14.33 ± 4.05 nmol/g w.w.

Q: And the β-PSEUDOURIDINE (5 mg/kg, 7 d post-sTBI)?
A: 17.51 ± 3.25 nmol/g w.w.

Q: What about the ATP/ADP (5 mg/kg, 7 d post-sTBI) of the same substance?
A: 6.28 ± 0.80

Q: And the “NAD+/NADH” value (5 mg/kg, 7 d post-sTBI)?
A: 33.90 ± 7.19

Q: What about the ADENOSINE [1] of the same substance?
A: 40.84 ± 30.25 nmol/g w.w.

Q: What about the ADP [1] of the same substance?
A: 260.32 ± 34.67 nmol/g w.w.

Q: What about the ADP-Ribose [1] of the same substance?
A: 13.23 ± 3.32 nmol/g w.w.

Q: What about the AMP [1] of the same substance?
A: 43.12 ± 3.39 nmol/g w.w.

Q: What about the “ASCORBIC ACID” value [1] of the same substance?
A: 2617.09 ± 315.18 nmol/g w.w.

Q: And the ATP [1]?
A: 1971.17 ± 158.57 nmol/g w.w.

Q: And the Acetyl-CoA [1]?
A: 37.91 ± 6.46 nmol/g w.w.

Q: What about the CDP choline [1] of the same substance?
A: 11.72 ± 3.76 nmol/g w.w.

Q: And the CMP [1]?
A: 31.21 ± 13.28 nmol/g w.w.

Q: What about the CREATININE [1] of the same substance?
A: 9.07 ± 1.60 nmol/g w.w.

Q: And the CTP [1]?
A: 92.67 ± 16.27 nmol/g w.w.

Q: What about the CYTIDINE [1] of the same substance?
A: 72.85 ± 25.63 nmol/g w.w.

Q: What about the CYTOSINE [1] of the same substance?
A: 8.76 ± 1.88 nmol/g w.w.

Q: What about the CoA-SH [1] of the same substance?
A: 45.76 ± 5.87 nmol/g w.w.

Q: What about the GDP [1] of the same substance?
A: 109.06 ± 12.46 nmol/g w.w.

Q: What about the “GDP Glucose” value [1] of the same substance?
A: 106.42 ± 12.45 nmol/g w.w.

Q: What about the GMP [1] of the same substance?
A: 61.86 ± 29.28 nmol/g w.w.

Q: And the GSH [1]?
A: 2342.03 ± 308.72 nmol/g w.w.

Q: And the GTP [1]?
A: 466.06 ± 42.38 nmol/g w.w.

Q: What about the GUANINE [1] of the same substance?
A: 3.32 ± 1.41 nmol/g w.w.

Q: And the GUANOSINE [1]?
A: 19.66 ± 4.10 nmol/g w.w.

Q: And the HYPOXANTHINE [1]?
A: 4.10 ± 1.19 nmol/g w.w.

Q: What about the IMP [1] of the same substance?
A: 141.84 ± 36.32 nmol/g w.w.

Q: What about the INOSINE [1] of the same substance?
A: 139.26 ± 15.62 nmol/g w.w.

Q: And the MDA [1]?
A: 4.09 ± 0.67 nmol/g w.w.

Q: And the Malonyl-CoA [1]?
A: 12.56 ± 2.27 nmol/g w.w.

Q: What about the NADH [1] of the same substance?
A: 11.05 ± 1.52 nmol/g w.w.

Q: And the NADPH [1]?
A: 11.21 ± 2.60 nmol/g w.w.

Q: What about the “NADP^+” value [1] of the same substance?
A: 16.56 ± 6.08 nmol/g w.w.

Q: And the “NAD^+” value [1]?
A: 401.73 ± 56.89 nmol/g w.w.

Q: And the NO2 [1]?
A: 130.69 ± 28.31 nmol/g w.w.

Q: What about the NO3 [1] of the same substance?
A: 271.69 ± 46.41 nmol/g w.w.

Q: What about the UDP [1] of the same substance?
A: 37.12 ± 5.22 nmol/g w.w.

Q: What about the UDP-Gal [1] of the same substance?
A: 135.15 ± 9.29 nmol/g w.w.

Q: And the UDP-GalNac [1]?
A: 16.50 ± 4.73 nmol/g w.w.

Q: And the UDP-Glc [1]?
A: 61.37 ± 12.47 nmol/g w.w.

Q: What about the UDP-GlcNac [1] of the same substance?
A: 86.42 ± 29.89 nmol/g w.w.

Q: What about the UMP [1] of the same substance?
A: 107.66 ± 20.86 nmol/g w.w.

Q: And the URACIL [1]?
A: 24.13 ± 4.96 nmol/g w.w.

Q: What about the “URIC ACID” value [1] of the same substance?
A: 7.80 ± 1.86 nmol/g w.w.

Q: What about the URIDINE [1] of the same substance?
A: 97.21 ± 23.03 nmol/g w.w.

Q: What about the UTP [1] of the same substance?
A: 133.72 ± 23.42 nmol/g w.w.

Q: What about the XANTHINE [1] of the same substance?
A: 11.24 ± 3.18 nmol/g w.w.

Q: And the β-PSEUDOURIDINE [1]?
A: 16.72 ± 3.10 nmol/g w.w.

Q: What about the ATP/ADP [1] of the same substance?
A: 7.67 ± 0.97

Q: What about the “NAD+/NADH” value [1] of the same substance?
A: 37.47 ± 9.46

Q: And the ADENOSINE (15 mg/kg, 2 d post-sTBI)?
A: 53.25 ± 12.75 nmol/g w.w.

Q: And the ADP (15 mg/kg, 2 d post-sTBI)?
A: 346.37 ± 29.79 nmol/g w.w.

Q: And the ADP-Ribose (15 mg/kg, 2 d post-sTBI)?
A: 23.06 ± 4.63 nmol/g w.w.

Q: What about the AMP (15 mg/kg, 2 d post-sTBI) of the same substance?
A: 66.26 ± 10.74 nmol/g w.w.

Q: What about the “ASCORBIC ACID” value (15 mg/kg, 2 d post-sTBI) of the same substance?
A: 2783.04 ± 160.17 nmol/g w.w.

Q: What about the ATP (15 mg/kg, 2 d post-sTBI) of the same substance?
A: 1556.54 ± 91.20 nmol/g w.w.

Q: What about the Acetyl-CoA (15 mg/kg, 2 d post-sTBI) of the same substance?
A: 32.38 ± 3.77 nmol/g w.w.

Q: What about the CDP choline (15 mg/kg, 2 d post-sTBI) of the same substance?
A: 7.07 ± 1.05 nmol/g w.w.

Q: What about the CMP (15 mg/kg, 2 d post-sTBI) of the same substance?
A: 25.61 ± 5.23 nmol/g w.w.

Q: What about the CREATININE (15 mg/kg, 2 d post-sTBI) of the same substance?
A: 11.77 ± 2.19 nmol/g w.w.

Q: And the CTP (15 mg/kg, 2 d post-sTBI)?
A: 37.53 ± 7.59 nmol/g w.w.

Q: What about the CYTIDINE (15 mg/kg, 2 d post-sTBI) of the same substance?
A: 11.46 ± 2.07 nmol/g w.w.

Q: What about the CYTOSINE (15 mg/kg, 2 d post-sTBI) of the same substance?
A: 13.57 ± 1.66 nmol/g w.w.

Q: What about the CoA-SH (15 mg/kg, 2 d post-sTBI) of the same substance?
A: 9.35 ± 1.03 nmol/g w.w.
